# Tested on: A375 cells
# Assay: A375 cell immunofluorescence assay (with 1 μM S1152 and 0.5 μM S1008), EC50
# Assay type: cell-based
# Conditions: 1 μM S1152 + 0.5 μM S1008, one day, ratio FL2/FL3 staining (sc-365823 antibody)
# Experimental: One thousand four hundred A375 cells were seeded in each well of a 384 well microplate. One day later they were treated with 1 μM S1152 (Selleckchem) in dimethyl sulfoxide, 0.5 μM S1008 (Selleckchem) and dose ranges of invention compounds for one day in Dulbecco's Modified Eagle's Medium supplemented with 10% fetal calf serum and 2 mM (2S)-2-amino-4-carbamoylbutanoic acid. Wells were incubated with 4% polyoxymethylene (Sigma Aldrich 158127) at ambient temperature. After ten minutes, polyoxymethylene was replaced with phosphate-buffered saline. After one minute phosphate-buffered saline was replaced with 0.2% polyethylene glycol octylphenyl ether in phosphate-buffered saline. After ten minutes at ambient temperature 0.2% polyethylene glycol octylphenyl ether in phosphate-buffered saline was replaced with 1% aminoethanoic acid in phosphate-buffered saline. […] After one hour at 37° C., the solution was replaced with phosphate-buffered saline twice. Phosphate-buffered saline was replaced with 2 μg/ml A-11029 (Invitrogen) in 0.05% polyoxyethylene (20) sorbitan monolaurate in phosphate-buffered saline. […] After one hour at ambient temperature in the dark, signal in wells was measured with a Acumen Cellista. 3,8-Diamino-5-[3-(diethylmethylammonio)propyl]-6-phenylphenanthridinium diiodide-positive objects were defined in FL3 (565-600 nm) with a perimeter between 50-800 μm and a total intensity of 10000-1000000 FLU. Signal in FL2 (500-530 nm) was measured in defined objects. A normalized ratio of total ln FL2 over total ln FL3 staining was log transformed. A non-linear regression (variable slope, 4 parameters) was used to calculate EC50 values using GraphPad Prism (Version 7.0d).
row,Compound,EC50
1,O=C1CCC2C(c3nc(Nc4cccc(F)c4)cc(-c4cccnc4)n3)CCCN12 (centres unmarked),1 to 10 µM
2,COc1cncc(-c2cc(Nc3cccc(-n4cnnc4)c3)nc(C3CCCN(C(C)=O)C3)n2)c1 (centres unmarked),> 10 µM
3,CC(=O)N1CCCC(c2nc(Nc3cccc(F)c3)cc(-c3cncc4[nH]ccc34)n2)C1 (centres unmarked) [drawing 575],1 to 10 µM
4,O=C(N1CCCC(c2nc(Nc3cccc(F)c3)cc(-c3cccnc3)n2)C1)C(F)(F)F (centres unmarked),> 10 µM
5,CC(=O)N1CCCC(c2nc(Nc3cncc(C)c3)cc(-c3cccnc3)n2)C1 (centres unmarked),1 to 10 µM
6,CC(=O)N1CCCC(c2nc(Nc3cc(F)cc(F)c3)cc(-c3ccnnc3)n2)C1 (centres unmarked),1 to 10 µM
7,O=C(C1CC1)N1CCCC(c2nc(Nc3cccc(F)c3)cc(-c3cccnc3)n2)C1 (centres unmarked),1 to 10 µM
8,CC(=O)N1CCCC(c2nc(NC3CCCCC3)cc(-c3cccnc3)n2)C1 (centres unmarked),> 10 µM
9,CCN1CCCC(c2nc(Nc3cccc(F)c3)cc(-c3cccnc3)n2)C1 (centres unmarked),> 10 µM
10,CC(=O)N1CCCC(c2nc(Nc3ccccn3)cc(-c3cccnc3)n2)C1 (centres unmarked),> 10 µM
11,CCC(=O)N1CCCC(c2nc(Nc3ccccc3F)cc(-c3ccncc3)n2)C1 (centres unmarked),> 10 µM
12,CC(C)CN1CCCC(c2nc(Nc3cccc(F)c3)cc(-c3cccnc3)n2)C1 (centres unmarked),> 10 µM
13,CCC(=O)N1CCCC(c2nc(Nc3cccc(F)c3)cc(-c3cccc(NC(C)=O)c3)n2)C1 (centres unmarked),1 to 10 µM
14,CC(=O)N1CCOCC(c2nc(Nc3cccc(F)c3)cc(-c3cccnc3)n2)C1 (centres unmarked),1 to 10 µM
15,CC(=O)N1CCOC(c2nc(Nc3cccc(F)c3)cc(-c3cccnc3)n2)C1 (centres unmarked),> 10 µM
16,COC(=O)N1CCCC(c2nc(Nc3cccc(F)c3)cc(-c3cccnc3)n2)C1 (centres unmarked),1 to 10 µM
17,CC(=O)N1C[C@H](c2nc(Nc3cncc(C)c3)cc(-c3cncnc3)n2)CC[C@@H]1C,< 1 µM
18,CCC(=O)N1CCCC(c2nc(Nc3cccc(F)c3)cc(-c3ccc4scnc4c3)n2)C1 (centres unmarked),1 to 10 µM
19,CC(=O)N1CCCC(c2nc(Nc3cccc(F)c3)cc(-c3cncc(C(=O)N4CCS(=O)(=O)CC4)c3)n2)C1 (centres unmarked),> 10 µM
20,CCC(=O)N1CCCC(c2nc(Nc3cccc(F)c3)cc(NC3CCC3)n2)C1 (centres unmarked),> 10 µM
21,COc1cncc(-c2cc(Nc3ccc(C)c(F)c3)nc(C3CCCN(C(C)=O)C3)n2)c1 (centres unmarked),1 to 10 µM
22,CCC(=O)N1CCCC(c2nc(Nc3cccc(F)c3)cc(NC3CC3)n2)C1 (centres unmarked),> 10 µM

row,Compound,EC50
1,Fc1cccc(Nc2cc(-c3cccnc3)nc(C3CCCN(CC(F)(F)F)C3)n2)c1 (centres unmarked),> 10 µM
2,CCC(=O)N1CCCC(c2nc(Nc3cccc(F)c3)cc(-c3ccc(OC)nc3)n2)C1 (centres unmarked),> 10 µM
3,COc1cccc(Nc2cc(-c3cncc(OC)c3)nc(C3CCCN(C(C)=O)C3)n2)c1 (centres unmarked),1 to 10 µM
4,CC(=O)N1CCCC(c2cc(Nc3cccc(F)c3)cc(-c3cccnc3)n2)C1 (centres unmarked),1 to 10 µM
5,CCC(=O)N1CCCC(c2nc(Nc3cccc(Cl)c3)cc(-c3cccnc3)n2)C1 (centres unmarked),1 to 10 µM
6,O=C1CCCC2C(c3nc(Nc4cccc(F)c4)cc(-c4cccnc4)n3)CCCN12 (centres unmarked),1 to 10 µM
7,CCC(=O)N1CCCC(c2nc(Nc3cccc(F)c3)cc(-c3c(C)noc3C)n2)C1 (centres unmarked),1 to 10 µM
8,CC(=O)N1CC(c2nc(Nc3cccc(F)c3)cc(-c3cccnc3)n2)CC2CCCCC21 (centres unmarked),1 to 10 µM
9,CN1CCCC(c2nc(Nc3cccc(F)c3)cc(-c3cccnc3)n2)C1 (centres unmarked),> 10 µM
10,CCC(=O)N1CCCC(c2nc(NCc3ccccc3)cc(-c3cccnc3)n2)C1 (centres unmarked),> 10 µM
11,CC(=O)N1CC(c2nc(Nc3cccc(F)c3)cc(-c3cccnc3)n2)CCC1(C)C (centres unmarked),> 10 µM
12,CCC(=O)N1CCCC(c2nc(-c3cccnc3)cc(N(C)c3cccc(F)c3)n2)C1 (centres unmarked),1 to 10 µM
13,CC(=O)N1CCCC(c2nc(Nc3nc(C)co3)cc(-c3cccnc3)n2)C1 (centres unmarked),> 10 µM
14,CC(=O)N1CCCC(c2nc(Nc3cccc(C)c3)cc(-c3c(C)noc3C)n2)C1 (centres unmarked),1 to 10 µM
15,CC(=O)N1CCCC(c2nc(Nc3cncc(F)c3)cc(-c3cccnc3)n2)C1 (centres unmarked),1 to 10 µM
16,CCC(=O)N1CCCC(c2nc(Nc3cccc(F)c3)cc(-c3cc[nH]n3)n2)C1 (centres unmarked),> 10 µM
17,O=C(C(F)F)N1CCCC(c2nc(Nc3cccc(F)c3)cc(-c3cccnc3)n2)C1 (centres unmarked),> 10 µM
18,CCc1cccc(Nc2cc(-c3cncc(OC)c3)nc(C3CCCN(C(C)=O)C3)n2)c1 (centres unmarked),1 to 10 µM
19,CC(=O)N1CCCC(c2nc(Nc3cccc(F)c3)cc(-c3c(C)noc3C)n2)C1 (centres unmarked),1 to 10 µM
20,CC(=O)N1CCCC(c2nc(Nc3cccc(F)c3)cc(-c3cnc4[nH]ccc4c3)n2)C1 (centres unmarked),1 to 10 µM
21,CC(=O)N1CCCC(c2nc(Nc3cccc(F)c3)cc(-c3cncc(-c4nccs4)c3)n2)C1 (centres unmarked),< 1 µM
22,CC(=O)N1CCCC(c2nc(Nc3ccnnc3)cc(-c3cccnc3)n2)C1 (centres unmarked),> 10 µM

row,Compound,EC50
1,CCC(=O)N1CCCC(c2nc(Nc3cccc(F)c3)cc(-c3cccc(C(=O)NC)c3)n2)C1 (centres unmarked),> 10 µM
2,CCC(=O)N1CCCC(c2nc(C)cc(Nc3cccc(F)c3)n2)C1 (centres unmarked),> 10 µM
3,CCC(=O)N1CCCC(c2nc(Nc3cccc(C(F)(F)F)c3)cc(-c3cccnc3)n2)C1 (centres unmarked),> 10 µM
4,CCC(=O)N1CCCC(c2nc(NC)cc(-c3cccnc3)n2)C1 (centres unmarked),> 10 µM
5,COC(=O)N1CCOCC(c2nc(Nc3cccc(F)c3)cc(-c3cccnc3)n2)C1 (centres unmarked),1 to 10 µM
6,CCC(=O)N1CCCC(c2nc(Oc3cccc(F)c3)cc(-c3cccnc3)n2)C1 (centres unmarked),> 10 µM
7,CC(=O)NCCOCCOCCOc1cncc(-c2cc(Nc3cccc(F)c3)nc(C3CCCN(C(C)=O)C3)n2)c1 (centres unmarked),1 to 10 µM
8,CC(=O)N1CC(c2nc(Nc3cccc(F)c3)cc(-c3cccnc3)n2)CC(F)(F)C1 (centres unmarked),> 10 µM
9,CC(=O)N1CCCC(c2nc(Nc3cccc(C)c3)cc(-c3cncc(-c4nccs4)c3)n2)C1 (centres unmarked),< 1 µM
10,COc1cncc(-c2cc(Nc3cncc(C)c3)nc([C@@H]3CC[C@H](C)N(C(C)=O)C3)n2)c1,< 1 µM
11,CC(=O)N1CCCC(c2nc(Nc3cccc(F)c3)cc(-c3cncc(C(=O)N4C[C@@H]5C[C@H]4CO5)c3)n2)C1 (some centres unmarked),1 to 10 µM
12,CC(=O)N1CCCC(c2nc(Nc3cccc(F)c3)cc(-c3ccc(N4CCN(C)CC4)nc3)n2)C1 (centres unmarked),> 10 µM
13,CC(=O)N1CCCC(c2nc(Nc3cccc(F)c3)cc(N3CCOCC3)n2)C1 (centres unmarked),> 10 µM
14,COc1cncc(-c2cc(Nc3ccc(OCCOCCOCCNC(C)=O)cc3)nc(C3CCCN(C(C)=O)C3)n2)c1 (centres unmarked),> 10 µM
15,CC(=O)N1CCCC(c2nc(Nc3cccc(C)c3)cc(-c3cncc4[nH]ccc34)n2)C1 (centres unmarked),< 1 µM
16,CC(=O)N1CCCC(c2nc(Nc3cccc(C)c3)cc(-c3cncc(N4CCOCC4)c3)n2)C1 (centres unmarked),< 1 µM
17,Fc1cccc(Nc2cc(-c3cccnc3)nc(C3CCCNC3)n2)c1 (centres unmarked),> 10 µM
18,CC(=O)Nc1ccc(-c2cc(Nc3cccc(F)c3)nc(C3CCCN(C(C)=O)C3)n2)cc1 (centres unmarked),< 1 µM
19,CCC(=O)N1CCCC(c2nc(Nc3cccc(F)c3)cc(-c3ccc4ocnc4c3)n2)C1 (centres unmarked),> 10 µM
20,COc1csc(-c2cc(Nc3cccc(F)c3)nc(C3CCCN(C(C)=O)C3)n2)c1 (centres unmarked),< 1 µM
21,COc1cncc(-c2cc(Nc3cccc(OCCOCCOCCNC(C)=O)c3)nc(C3CCCN(C(C)=O)C3)n2)c1 (centres unmarked),1 to 10 µM
22,CC(=O)N1CC(O)CC(c2nc(Nc3cccc(F)c3)cc(-c3cccnc3)n2)C1 (centres unmarked),1 to 10 µM

row,Compound,EC50
1,COc1cncc(-c2cc(Nc3ccccc3)nc(C3CCCN(C(C)=O)C3)n2)c1 (centres unmarked),< 1 µM
2,CCC(=O)N1CCCC(c2nc(Cl)cc(Nc3cccc(F)c3)n2)C1 (centres unmarked),> 10 µM
3,CCC(=O)N1CCCC(c2nc(Nc3cccc(F)c3)cc(-c3cnc(OC(C)C)s3)n2)C1 (centres unmarked),> 10 µM
4,CC(=O)N1CCCC(c2nc(Nc3cccc(F)c3)cc(-c3cncc(N4CCOCC4)c3)n2)C1 (centres unmarked),< 1 µM
5,COc1cncc(-c2cc(Nc3cccc(F)c3)nc(C3CCCN(C(C)=O)C3)n2)c1 (centres unmarked),< 1 µM
6,CC(=O)N1CCCC(c2nc(Nc3cccc(F)c3)cc(-c3ccccc3)n2)C1 (centres unmarked),1 to 10 µM
7,CCC(=O)N1CCCC(c2nc(Nc3cccc(F)c3)cc(-c3ccccc3)n2)C1 (centres unmarked),1 to 10 µM
8,CC(=O)N1C[C@H](c2nc(Nc3cncc(C)c3)cc(-c3cncc(C4COC4)c3)n2)CC[C@@H]1C,< 1 µM
9,CC(=O)N1C[C@H](c2nc(Nc3cncc(C)c3)cc(-c3cccnc3)n2)CC[C@@H]1C,< 1 µM
10,CN1CCOC(c2nc(Nc3cccc(F)c3)cc(-c3cccnc3)n2)C1 (centres unmarked),> 10 µM
11,CC(=O)N1CCCC(c2nc(Nc3ccccn3)cc(-c3cncnc3)n2)C1 (centres unmarked),> 10 µM
12,COc1cncc(-c2cc(Nc3cccc(Cl)c3)nc([C@@H]3CC[C@H](C)N(C(C)=O)C3)n2)c1,< 1 µM
13,CC(=O)N1CCCC(Nc2cc(Nc3cccc(F)c3)nc(C3CCCN(C(C)=O)C3)n2)C1 (centres unmarked),> 10 µM
14,CCC(=O)N1CCCC(c2nc(Nc3cccc(F)c3)cc(-c3cnn(CC(F)(F)F)c3)n2)C1 (centres unmarked),1 to 10 µM
15,COc1cncc(-c2cc(Nc3cccc(F)c3)cc(C3CCCN(C(C)=O)C3)n2)c1 (centres unmarked),1 to 10 µM
16,CCC(=O)N1CCCC(c2nc(NC3CCCC3)cc(-c3cccnc3)n2)C1 (centres unmarked),> 10 µM
17,CC(=O)NCCOCCOCCOCC(=O)Nc1ccc(-c2cc(Nc3cccc(F)c3)nc(C3CCCN(C(C)=O)C3)n2)cc1 (centres unmarked),1 to 10 µM
18,CC(=O)N1CCCC(c2nc(Nc3cccc(F)c3)cc(-c3cncc(C(F)(F)F)c3)n2)C1 (centres unmarked),> 10 µM
19,CC(=O)N1CCCC(c2cc(Nc3cccc(F)c3)nc(-c3cccnc3)n2)C1 (centres unmarked),1 to 10 µM
20,CCC(=O)N1CCCC(c2nc(Nc3cccc(F)c3)cc(C3CCCCC3)n2)C1 (centres unmarked),> 10 µM

# Source: patent US20230067929A1, “HETEROCYCLIC DERIVATIVES, PHARMACEUTICAL COMPOSITIONS AND THEIR USE IN THE TREATMENT, AMELIORATION OR PREVENTION OF CANCER” (Tolremo Therapeutics AG, priority 2018, published 2023)
